Measurements as given in patent US12564582B2 (Prilenia Neurotherapeutics Ltd., priority 2016, dated 2026).
Read-outs that look alike come from different tables or passages of the source.

Assays:
[1] = tested on: patients with Huntington's disease; details: Week 26; for Δ to placebo, change from baseline in UHDRS TMS Chorea: ALL; for Wk 26 Δ to placebo, change from baseline in UHDRS TMS Chorea: Stage 1 BL TFC 11-13
Excerpt: In the UHDRS, maximal chorea was scored from 0 (absent) to 4 (marked/prolonged) on each of the following items: face, mouth, trunk, right upper extremity, left upper extremity, right lower extremity, and left lower extremity. Maximal chorea is the sum of all scores.

[2] = tested on: patients with Huntington's disease
Excerpt: In the UHDRS, maximal dystonia was scored from 0 (absent) to 4 (marked/prolonged) on each of the following items: trunk, right upper extremity, left upper extremity, right lower extremity, and left lower extremity. Maximal dystonia is the sum of all scores.

[3] = tested on: patients with Huntington's disease; remark: listed apart in the source
Description: These variables were analyzed in the same way as the primary efficacy endpoint except that the variable evaluation at baseline were included in the model instead of baseline UHDRS-TMS.

[4] = 45 mg bid, Week 26, Stage 1 BL TFC 11-13
[5] = 45 mg bid, Week 52, Stage 1 BL TFC 11-13
[6] = 45 mg bid, Week 52, all pridopidine treated patients
[7] = 67.5 mg bid, Week 26, Stage 1 BL TFC 11-13
[8] = 67.5 mg bid, Week 52, Stage 1 BL TFC 11-13
[9] = 67.5 mg bid, Week 52, all pridopidine treated patients
[10] = 90 mg bid, Week 26, Stage 1 BL TFC 11-13
[11] = 90 mg bid, Week 52, Stage 1 BL TFC 11-13
[12] = 90 mg bid, Week 52, all pridopidine treated patients
[13] = 112.5 mg bid, Week 26, Stage 1 BL TFC 11-13
[14] = 112.5 mg bid, Week 52, Stage 1 BL TFC 11-13

**Q.** How did the “Δ to placebo, change from baseline in UHDRS TMS Chorea” value ([1]; 45 mg bid) turn out when `CCCN1CCC(c2cccc(S(C)(=O)=O)c2)CC1` [pridopidine, 4-[3-(methylsulfonyl)phenyl]-1-propyl-piperidine] was run?
**A.** The value was 0.92.

**Q.** What about the “Wk 26 Δ to placebo, change from baseline in UHDRS TMS Chorea” value (from here on “Wk 26 Δ to placebo, change from baseline”) ([1]; 45 mg bid) of the same compound?
**A.** The value was −1.4.

**Q.** And the “Δ to placebo, change from baseline in UHDRS TMS Chorea” value ([1]; 67.5 mg bid)?
**A.** Its value is 0.81.

**Q.** What about the “Wk 26 Δ to placebo, change from baseline” value ([1]; 67.5 mg bid) of the same compound?
**A.** The value was −2.07.

**Q.** And the “Δ to placebo, change from baseline in UHDRS TMS Chorea” value ([1]; 90 mg bid)?
**A.** The value was 0.36.

**Q.** What about the “Wk 26 Δ to placebo, change from baseline” value ([1]; 90 mg bid) of the same compound?
**A.** The value was −2.52.

**Q.** And the “Δ to placebo, change from baseline in UHDRS TMS Chorea” value ([1]; 112.5 mg bid)?
**A.** Its value is 1.05.

**Q.** And the “Wk 26 Δ to placebo, change from baseline” value ([1]; 112.5 mg bid)?
**A.** Its value is −1.08.

**Q.** And the “Δ to placebo, change from baseline in UHDRS TMS Dystonia” value ([2]; 45 mg bid, Week 26, ALL)?
**A.** The value was −0.06.

**Q.** And the “Δ to placebo, change from baseline in UHDRS TMS Dystonia” value [2, 4]?
**A.** The value was −0.99.

**Q.** And the “Δ to placebo, change from baseline in UHDRS TMS Dystonia” value [2, 5]?
**A.** Its value is −1.65.

**Q.** What about the “Δ to placebo, change from baseline in UHDRS TMS Dystonia” value [2, 6] of the same compound?
**A.** Its value is −0.39.

**Q.** And the “Δ to placebo, change from baseline in UHDRS TMS Dystonia” value ([2]; 45 mg bid, week 26, BL TFC ≥9 and CAG Repeats <44 and BL TMS 1st 3 Qs)?
**A.** Its value is −1.53.

**Q.** And the “Δ to placebo, change from baseline in UHDRS TMS Dystonia” value ([2]; 45 mg bid, week 26, BL TFC≥9 AND CAG Repeats <44)?
**A.** The value was −1.54.

**Q.** What about the “Δ to placebo, change from baseline in UHDRS TMS Dystonia” value ([2]; 45 mg bid, week 26, CAG Repeats <44 AND BL TMS 1st 3 Qs) of the same compound?
**A.** Its value is −1.04.

**Q.** What about the “Δ to placebo, change from baseline in UHDRS TMS Dystonia” value ([2]; 67.5 mg bid, Week 26, ALL) of the same compound?
**A.** The value was −0.34.

**Q.** And the “Δ to placebo, change from baseline in UHDRS TMS Dystonia” value [2, 7]?
**A.** The value was −0.89.

**Q.** What about the “Δ to placebo, change from baseline in UHDRS TMS Dystonia” value [2, 8] of the same compound?
**A.** The value was −0.1.

**Q.** And the “Δ to placebo, change from baseline in UHDRS TMS Dystonia” value [2, 9]?
**A.** The value was −0.35.

**Q.** And the “Δ to placebo, change from baseline in UHDRS TMS Dystonia” value ([2]; 67.5 mg bid, week 26, BL TFC ≥9 and CAG Repeats <44 and BL TMS 1st 3 Qs)?
**A.** Its value is −1.6.

**Q.** And the “Δ to placebo, change from baseline in UHDRS TMS Dystonia” value ([2]; 67.5 mg bid, week 26, BL TFC≥9 AND CAG Repeats <44)?
**A.** The value was −1.58.

**Q.** And the “Δ to placebo, change from baseline in UHDRS TMS Dystonia” value ([2]; 67.5 mg bid, week 26, CAG Repeats <44 AND BL TMS 1st 3 Qs)?
**A.** The value was −1.15.

**Q.** What about the “Δ to placebo, change from baseline in UHDRS TMS Dystonia” value ([2]; 90 mg bid, Week 26, ALL) of the same compound?
**A.** Its value is −0.33.

**Q.** And the “Δ to placebo, change from baseline in UHDRS TMS Dystonia” value [2, 10]?
**A.** The value was −1.56.

**Q.** And the “Δ to placebo, change from baseline in UHDRS TMS Dystonia” value [2, 11]?
**A.** Its value is −1.46.

**Q.** What about the “Δ to placebo, change from baseline in UHDRS TMS Dystonia” value [2, 12] of the same compound?
**A.** The value was −0.27.

**Q.** What about the “Δ to placebo, change from baseline in UHDRS TMS Dystonia” value ([2]; 90 mg bid, week 26, BL TFC ≥9 and CAG Repeats <44 and BL TMS 1st 3 Qs) of the same compound?
**A.** The value was −1.64.

**Q.** What about the “Δ to placebo, change from baseline in UHDRS TMS Dystonia” value ([2]; 90 mg bid, week 26, BL TFC≥9 AND CAG Repeats <44) of the same compound?
**A.** Its value is −1.72.

**Q.** What about the “Δ to placebo, change from baseline in UHDRS TMS Dystonia” value ([2]; 90 mg bid, week 26, CAG Repeats <44 AND BL TMS 1st 3 Qs) of the same compound?
**A.** Its value is −1.

**Q.** And the “Δ to placebo, change from baseline in UHDRS TMS Dystonia” value ([2]; 112.5 mg bid, Week 26, ALL)?
**A.** Its value is −0.29.

**Q.** And the “Δ to placebo, change from baseline in UHDRS TMS Dystonia” value [2, 13]?
**A.** The value was −0.53.

**Q.** What about the “Δ to placebo, change from baseline in UHDRS TMS Dystonia” value [2, 14] of the same compound?
**A.** Its value is −0.46.

**Q.** And the “Δ to placebo, change from baseline in UHDRS TMS Dystonia” value ([2]; 112.5 mg bid, Week 52, all pridopidine treated patients)?
**A.** Its value is −0.24.

**Q.** And the “Δ to placebo, change from baseline in UHDRS TMS Dystonia” value ([2]; 112.5 mg bid, week 26, BL TFC ≥9 and CAG Repeats <44 and BL TMS 1st 3 Qs)?
**A.** Its value is −1.29.

**Q.** What about the “Δ to placebo, change from baseline in UHDRS TMS Dystonia” value ([2]; 112.5 mg bid, week 26, BL TFC≥9 AND CAG Repeats <44) of the same compound?
**A.** The value was −1.4.

**Q.** What about the “Δ to placebo, change from baseline in UHDRS TMS Dystonia” value ([2]; 112.5 mg bid, week 26, CAG Repeats <44 AND BL TMS 1st 3 Qs) of the same compound?
**A.** The value was −0.62.

**Q.** And the “dystonia score, change from baseline” value ([2]; baseline total dystonia score≥4, Week 52, all treatment groups, greatest decreases for 45, 67.5 and 90 mg bid)?
**A.** The value was “directional clinical improvement”.

**Q.** And the “dystonia score, change from baseline” value ([2]; full analysis set, Week 26 or Week 52, all active treatment groups)?
**A.** Its value is “no clinically meaningful changes from baseline”.

**Q.** And the “Δ to placebo, change from baseline in UHDRS TMS Excluding Dystonia” value ([3]; 45 mg bid, Week 26, ALL)?
**A.** The value was 1.39.

**Q.** What about the “Δ to placebo, change from baseline in UHDRS TMS Involuntary Movements” value ([3]; 45 mg bid, Week 26, ALL) of the same compound?
**A.** Its value is 0.89.

**Q.** And the “Δ to placebo, change from baseline in UHDRS TMS Excluding Dystonia” value [3, 4]?
**A.** The value was −3.6.

**Q.** And the “Δ to placebo, change from baseline in UHDRS TMS Involuntary Movements” value [3, 4]?
**A.** Its value is −2.49.

**Q.** What about the “Δ to placebo, change from baseline in UHDRS TMS Excluding Chorea” value [3, 5] of the same compound?
**A.** Its value is −4.09.

**Q.** And the “Δ to placebo, change from baseline in UHDRS TMS Involuntary Movements” value [3, 5]?
**A.** The value was −2.73.

**Q.** What about the “Δ to placebo, change from baseline in UHDRS TMS Excluding Chorea” value [3, 6] of the same compound?
**A.** Its value is 0.05.

**Q.** And the “Δ to placebo, change from baseline in UHDRS TMS Involuntary Movements” value [3, 6]?
**A.** Its value is 0.02.

**Q.** What about the “Δ to placebo, change from baseline in UHDRS TMS Excluding Dystonia” value ([3]; 67.5 mg bid, Week 26, ALL) of the same compound?
**A.** The value was 1.97.

**Q.** What about the “Δ to placebo, change from baseline in UHDRS TMS Involuntary Movements” value ([3]; 67.5 mg bid, Week 26, ALL) of the same compound?
**A.** Its value is 0.48.

**Q.** And the “Δ to placebo, change from baseline in UHDRS TMS Excluding Dystonia” value [3, 7]?
**A.** Its value is −2.2.

**Q.** What about the “Δ to placebo, change from baseline in UHDRS TMS Involuntary Movements” value [3, 7] of the same compound?
**A.** The value was −3.07.

**Q.** And the “Δ to placebo, change from baseline in UHDRS TMS Excluding Chorea” value [3, 8]?
**A.** Its value is −0.18.

**Q.** What about the “Δ to placebo, change from baseline in UHDRS TMS Involuntary Movements” value [3, 8] of the same compound?
**A.** The value was −0.2.

**Q.** What about the “Δ to placebo, change from baseline in UHDRS TMS Excluding Chorea” value [3, 9] of the same compound?
**A.** Its value is 1.31.

**Q.** And the “Δ to placebo, change from baseline in UHDRS TMS Involuntary Movements” value [3, 9]?
**A.** Its value is 0.8.

**Q.** What about the “Δ to placebo, change from baseline in UHDRS TMS Excluding Dystonia” value ([3]; 90 mg bid, Week 26, ALL) of the same compound?
**A.** Its value is 1.2.

**Q.** What about the “Δ to placebo, change from baseline in UHDRS TMS Involuntary Movements” value ([3]; 90 mg bid, Week 26, ALL) of the same compound?
**A.** The value was 0.01.

**Q.** What about the “Δ to placebo, change from baseline in UHDRS TMS Excluding Dystonia” value [3, 10] of the same compound?
**A.** The value was −4.35.

**Q.** And the “Δ to placebo, change from baseline in UHDRS TMS Involuntary Movements” value [3, 10]?
**A.** Its value is −4.

**Q.** And the “Δ to placebo, change from baseline in UHDRS TMS Excluding Chorea” value [3, 11]?
**A.** Its value is −4.92.

**Q.** What about the “Δ to placebo, change from baseline in UHDRS TMS Involuntary Movements” value [3, 11] of the same compound?
**A.** The value was −3.8.

**Q.** What about the “Δ to placebo, change from baseline in UHDRS TMS Excluding Chorea” value [3, 12] of the same compound?
**A.** The value was 1.67.

**Q.** And the “Δ to placebo, change from baseline in UHDRS TMS Involuntary Movements” value [3, 12]?
**A.** Its value is −0.26.

**Q.** And the “Δ to placebo, change from baseline in UHDRS TMS Excluding Dystonia” value ([3]; 112.5 mg bid, Week 26, ALL)?
**A.** The value was 2.4.

**Q.** What about the “Δ to placebo, change from baseline in UHDRS TMS Involuntary Movements” value ([3]; 112.5 mg bid, Week 26, ALL) of the same compound?
**A.** Its value is 0.76.

**Q.** And the “Δ to placebo, change from baseline in UHDRS TMS Excluding Dystonia” value [3, 13]?
**A.** Its value is −4.31.

**Q.** And the “Δ to placebo, change from baseline in UHDRS TMS Involuntary Movements” value [3, 13]?
**A.** The value was −1.64.

**Q.** What about the “Δ to placebo, change from baseline in UHDRS TMS Excluding Chorea” value [3, 14] of the same compound?
**A.** The value was −1.59.
